Results taken from patent EP1640359A2, “Anticonvulsant and central nervous system-active bis(fluorophenyl)alkylamides” (NPS PHARMACEUTICALS, INC., priority 1997, dated 1999).

Tested on: normal anesthetized rats
Assay: Flexor reflex in normal anesthetized rats (spasticity model)
Format: in vivo
Conditions: in comparison to baclofen, Figure 3 legend only, no numbers given
Source text: Baclofen, diazepam (Valium), and tizanidine are effective on different parameters of spasticity (EMG recordings, H-reflex, the H/M ratio, mono- and polysynaptic reflexes, clonus, hyperreflexia) in these models. The flexor reflex is a polysynaptic response elicited by stimulation of the bottom of the foot and models the withdrawal reflex.

NC(=O)CC(c1cccc(F)c1)c1cccc(F)c1 [Compound 1, 3,3-bis(3-fluorophenyl)propanamide]
reduction in the flexor reflex: reduction in the flexor reflex
